# Experimental data as given in PubChem BioAssay (NCI).
#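 Where inhibition never reached the appropriate level, the endpoint shown equals the highest concentration tested. Otherwise, values were interpolated linearly from a five-concentration, 48-hour dose response in 96-well plates. TGI denotes the concentration required for complete inhibition of growth.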
# Experiments:
# Assay in all cases: NCI-60 cell line screen, 48 h
# [1] = tested on: U251 CNS
# [2] = tested on: OVCAR-8 ovarian
# [3] = tested on: RPMI-8226 leukemia
# [4] = tested on: RXF 393 renal
# [5] = tested on: UACC-62 melanoma
# [6] = tested on: HOP-92 NSCLC
# [7] = tested on: UACC-257 melanoma
# [8] = tested on: HS 578T breast
# [9] = tested on: SF-295 CNS
# [10] = tested on: OVCAR-3 ovarian
# [11] = tested on: MDA-MB-231 breast
# [12] = tested on: NCI-H226 lung
# [13] = tested on: SF-268 CNS
# [14] = tested on: 786-0 renal
# [15] = tested on: K-562 leukemia
# [16] = tested on: HCT-15 colon
# [17] = tested on: EKVX NSCLC
# [18] = tested on: SNB-19 CNS
# [19] = tested on: SNB-75 CNS
# [20] = tested on: A549 NSCLC
# [21] = tested on: CCRF-CEM leukemia
# [22] = tested on: A498 renal
# [23] = tested on: SK-MEL-2 melanoma
# [24] = tested on: NCI-H460 lung
# [25] = tested on: SK-MEL-28 melanoma
# [26] = tested on: PC-3 prostate
# [27] = tested on: UO-31 renal
# [28] = tested on: HL-60(TB) leukemia
# [29] = tested on: SK-OV-3 ovarian
# [30] = tested on: HT29 colon
# [31] = tested on: OVCAR-4 ovarian
# [32] = tested on: TK-10 renal
# [33] = tested on: SW-620 colon
# [34] = tested on: MCF7 breast
# [35] = tested on: COLO 205 colon
# [36] = tested on: HCT-116 colon
# [37] = tested on: M14 melanoma
# [38] = tested on: T-47D breast
# [39] = tested on: SK-MEL-5 melanoma
# [40] = tested on: CAKI-1 renal
# [41] = tested on: DU-145 prostate
# [42] = tested on: KM12 colon
# [43] = tested on: IGROV1 ovarian
# [44] = tested on: NCI-H522 lung
# [45] = tested on: ACHN renal
# [46] = tested on: BT-549 breast
# [47] = tested on: SN12C renal
# [48] = tested on: OVCAR-5 ovarian
# [49] = tested on: MALME-3M melanoma
# [50] = tested on: MOLT-4 leukemia
# [51] = tested on: MDA-MB-435
# [52] = tested on: NCI-H23 lung
# [53] = tested on: SR leukemia
# [54] = tested on: SF-539 CNS
# [55] = tested on: LOX IMVI melanoma
# [56] = tested on: HOP-62 NSCLC
# [57] = tested on: NCI/ADR-RES ovarian
smiles,measurement,setting,value
CC(NCCN(C)C)C1CCC2C3CCc4cc(O)ccc4C3CCC12C (configuration not stated),TGI,[1],4.35 µM
same,TGI,[2],11 µM
same,TGI,[3],7.35 µM
same,TGI,[4],3.69 µM
same,TGI,[5],3.45 µM
same,TGI,[6],13.1 µM
same,TGI,[7],3.83 µM
same,TGI,[8],18.1 µM
same,TGI,[9],6.72 µM
same,TGI,[10],4.37 µM
same,TGI,[11],4.42 µM
same,TGI,[12],34 µM
same,TGI,[13],17.5 µM
same,TGI,[14],4.1 µM
same,TGI,[15],4.81 µM
same,TGI,[16],9.49 µM
same,TGI,[17],17.7 µM
same,TGI,[18],13.2 µM
same,TGI,[19],10.2 µM
same,TGI,[20],13.6 µM
same,TGI,[21],3.47 µM
same,TGI,[22],8.38 µM
same,TGI,[23],3.79 µM
same,TGI,[24],4.68 µM
same,TGI,[25],5.29 µM
same,TGI,[26],11.7 µM
same,TGI,[27],3.76 µM
same,TGI,[28],4.15 µM
same,TGI,[29],15.9 µM
same,TGI,[30],8.45 µM
same,TGI,[31],9.55 µM
same,TGI,[32],6.63 µM
same,TGI,[33],12.7 µM
same,TGI,[34],11.5 µM
same,TGI,[35],3.54 µM
same,TGI,[36],7.7 µM
same,TGI,[37],3.09 µM
same,TGI,[38],5.29 µM
same,TGI,[39],3.29 µM
same,TGI,[40],4.32 µM
same,TGI,[41],18.6 µM
same,TGI,[42],10.3 µM
same,TGI,[43],17.2 µM
same,TGI,[44],10.6 µM
same,TGI,[45],3.99 µM
same,TGI,[46],31.4 µM
same,TGI,[47],4.42 µM
same,TGI,[48],18.3 µM
same,TGI,[49],3.73 µM
same,TGI,[50],5.19 µM
same,TGI,[51],4.7 µM
same,TGI,[52],16.5 µM
same,TGI,[53],3.85 µM
same,TGI,[54],9.52 µM
same,TGI,[55],4.75 µM
same,TGI,[56],8.7 µM
same,TGI,[57],8.97 µM
